{
  "source": "PubChem BioAssay AID1259407",
  "about": "(Chemical Carcinogenesis Research Information System (CCRIS), 2018)",
  "test_system": "CCRIS mutagenicity, Ames/micronucleus/aberration tests",
  "assay": "CCRIS mutagenicity studies",
  "key": {"[1]": {"conditions": "Test System: AMES SALMONELLA TYPHIMURIUM, Strain/Indicator: TA98, Metabolic Activation: NONE, Method: PREINCUBATION"}, "[2]": {"conditions": "Test System: AMES SALMONELLA TYPHIMURIUM, Strain/Indicator: TA100, Metabolic Activation: NONE, Method: PREINCUBATION"}},
  "note": "Activity calls are given as the source filed them. How the calls were made is not given here.",
  "data": [
    {"smiles": "CCCCCCCCCCCCC/C([O-])=N/[N+](C)(C)CC(C)O", "note": "(configuration not stated)", "values": [
      {"measurement": "mutagenic call", "setting": "Test System: AMES SALMONELLA TYPHIMURIUM, Strain/Indicator: TA97, Metabolic Activation: HAMSTER, LIVER, S-9, AROCLOR 1254 (10 OR 30%), Method: PREINCUBATION", "value": "inactive; negative"},
      {"measurement": "mutagenic call", "setting": "Test System: AMES SALMONELLA TYPHIMURIUM, Strain/Indicator: TA97, Metabolic Activation: NONE, Method: PREINCUBATION", "value": "inactive; negative"},
      {"measurement": "mutagenic call", "setting": "Test System: AMES SALMONELLA TYPHIMURIUM, Strain/Indicator: TA97, Metabolic Activation: RAT, LIVER, S-9, AROCLOR 1254 (10 OR 30%), Method: PREINCUBATION", "value": "inactive; negative"},
      {"measurement": "mutagenic call", "setting": "Test System: AMES SALMONELLA TYPHIMURIUM, Strain/Indicator: TA98, Metabolic Activation: HAMSTER, LIVER, S-9, AROCLOR 1254 (10%), Method: PREINCUBATION", "value": "inactive; negative"},
      {"measurement": "mutagenic call", "setting": "Test System: AMES SALMONELLA TYPHIMURIUM, Strain/Indicator: TA98, Metabolic Activation: HAMSTER, LIVER, S-9, AROCLOR 1254 (30%), Method: PREINCUBATION", "value": "inactive; negative"},
      {"measurement": "mutagenic call", "setting": "[1]", "value": "inactive; negative"},
      {"measurement": "mutagenic call", "setting": "Test System: AMES SALMONELLA TYPHIMURIUM, Strain/Indicator: TA98, Metabolic Activation: RAT, LIVER, S-9, AROCLOR 1254 (10%), Method: PREINCUBATION", "value": "inactive; negative"},
      {"measurement": "mutagenic call", "setting": "Test System: AMES SALMONELLA TYPHIMURIUM, Strain/Indicator: TA98, Metabolic Activation: RAT, LIVER, S-9, AROCLOR 1254 (30%), Method: PREINCUBATION", "value": "inactive; negative"},
      {"measurement": "mutagenic call", "setting": "Test System: AMES SALMONELLA TYPHIMURIUM, Strain/Indicator: TA100, Metabolic Activation: HAMSTER, LIVER, AROCLOR 1254 (10%), Method: PREINCUBATION", "value": "inactive; negative"},
      {"measurement": "mutagenic call", "setting": "Test System: AMES SALMONELLA TYPHIMURIUM, Strain/Indicator: TA100, Metabolic Activation: HAMSTER, LIVER, S-9, AROCLOR 1254 (30%), Method: PREINCUBATION", "value": "inactive; negative"},
      {"measurement": "mutagenic call", "setting": "[2]", "value": "inactive; negative"},
      {"measurement": "mutagenic call", "setting": "Test System: AMES SALMONELLA TYPHIMURIUM, Strain/Indicator: TA100, Metabolic Activation: RAT, LIVER, S-9, AROCLOR 1254 (10%), Method: PREINCUBATION", "value": "inactive; negative"},
      {"measurement": "mutagenic call", "setting": "Test System: AMES SALMONELLA TYPHIMURIUM, Strain/Indicator: TA100, Metabolic Activation: RAT, LIVER, S-9, AROCLOR 1254 (30%), Method: PREINCUBATION", "value": "inactive; negative"},
      {"measurement": "mutagenic call", "setting": "Test System: AMES SALMONELLA TYPHIMURIUM, Strain/Indicator: TA1535, Metabolic Activation: HAMSTER, LIVER, S-9, AROCLOR 1254 (10 OR 30%), Method: PREINCUBATION", "value": "inactive; negative"},
      {"measurement": "mutagenic call", "setting": "Test System: AMES SALMONELLA TYPHIMURIUM, Strain/Indicator: TA1535, Metabolic Activation: NONE, Method: PREINCUBATION", "value": "inactive; negative"},
      {"measurement": "mutagenic call", "setting": "Test System: AMES SALMONELLA TYPHIMURIUM, Strain/Indicator: TA1535, Metabolic Activation: RAT, LIVER, S-9, AROCLOR 1254 (10 OR 30%), Method: PREINCUBATION", "value": "inactive; negative"},
      {"measurement": "mutagenic call", "setting": "Test System: AMES SALMONELLA TYPHIMURIUM, Strain/Indicator: TA1537, Metabolic Activation: HAMSTER, LIVER, S-9, AROCLOR 1254 (10 OR 30%), Method: PREINCUBATION", "value": "inactive; negative"},
      {"measurement": "mutagenic call", "setting": "Test System: AMES SALMONELLA TYPHIMURIUM, Strain/Indicator: TA1537, Metabolic Activation: NONE, Method: PREINCUBATION", "value": "inactive; negative"},
      {"measurement": "mutagenic call", "setting": "Test System: AMES SALMONELLA TYPHIMURIUM, Strain/Indicator: TA1537, Metabolic Activation: RAT, LIVER, S-9, AROCLOR 1254 (10 OR 30%), Method: PREINCUBATION", "value": "inactive; negative"}
    ]},
    {"smiles": "[Be]=[O]", "values": [
      {"measurement": "mutagenic call", "setting": "[1]", "value": "inactive; negative"},
      {"measurement": "mutagenic call", "setting": "Test System: AMES SALMONELLA TYPHIMURIUM, Strain/Indicator: TA98, Metabolic Activation: RAT, LIVER, S-9 (10%), Method: PREINCUBATION", "value": "inactive; negative"},
      {"measurement": "mutagenic call", "setting": "[2]", "value": "inactive; negative"},
      {"measurement": "mutagenic call", "setting": "Test System: AMES SALMONELLA TYPHIMURIUM, Strain/Indicator: TA100, Metabolic Activation: RAT, LIVER, S-9 (10%), Method: PREINCUBATION", "value": "inactive; negative"}
    ]},
    {"smiles": "ClC1OC1CBr", "note": "(configuration not stated)", "values": [
      {"measurement": "mutagenic call", "setting": "[2]", "value": "active; positive"}
    ]},
    {"smiles": "N#CSCSC#N", "values": [
      {"measurement": "mutagenic call", "setting": "Test System: AMES SALMONELLA TYPHIMURIUM, Strain/Indicator: TA98, Metabolic Activation: HAMSTER, LIVER, S-9, AROCLOR 1254, Method: STANDARD PLATE", "value": "inactive; negative"},
      {"measurement": "mutagenic call", "setting": "Test System: AMES SALMONELLA TYPHIMURIUM, Strain/Indicator: TA98, Metabolic Activation: NONE, Method: STANDARD PLATE", "value": "inactive; negative"},
      {"measurement": "mutagenic call", "setting": "Test System: AMES SALMONELLA TYPHIMURIUM, Strain/Indicator: TA98, Metabolic Activation: RAT, LIVER, S-9, AROCLOR 1254, Method: STANDARD PLATE", "value": "inactive; negative"},
      {"measurement": "mutagenic call", "setting": "Test System: AMES SALMONELLA TYPHIMURIUM, Strain/Indicator: TA100, Metabolic Activation: HAMSTER, LIVER, S-9, AROCLOR 1254, Method: STANDARD PLATE", "value": "inactive; negative"},
      {"measurement": "mutagenic call", "setting": "Test System: AMES SALMONELLA TYPHIMURIUM, Strain/Indicator: TA100, Metabolic Activation: NONE, Method: STANDARD PLATE", "value": "inactive; negative"},
      {"measurement": "mutagenic call", "setting": "Test System: AMES SALMONELLA TYPHIMURIUM, Strain/Indicator: TA100, Metabolic Activation: RAT, LIVER, S-9, AROCLOR 1254, Method: STANDARD PLATE", "value": "inactive; negative"},
      {"measurement": "mutagenic call", "setting": "Test System: AMES SALMONELLA TYPHIMURIUM, Strain/Indicator: TA1535, Metabolic Activation: HAMSTER, LIVER, S-9, AROCLOR 1254, Method: STANDARD PLATE", "value": "inactive; negative"},
      {"measurement": "mutagenic call", "setting": "Test System: AMES SALMONELLA TYPHIMURIUM, Strain/Indicator: TA1535, Metabolic Activation: NONE, Method: STANDARD PLATE", "value": "inactive; negative"},
      {"measurement": "mutagenic call", "setting": "Test System: AMES SALMONELLA TYPHIMURIUM, Strain/Indicator: TA1535, Metabolic Activation: RAT, LIVER, S-9, AROCLOR 1254, Method: STANDARD PLATE", "value": "inactive; negative"},
      {"measurement": "mutagenic call", "setting": "Test System: AMES SALMONELLA TYPHIMURIUM, Strain/Indicator: TA1537, Metabolic Activation: HAMSTER, LIVER, S-9, AROCLOR 1254, Method: STANDARD PLATE", "value": "inactive; negative"},
      {"measurement": "mutagenic call", "setting": "Test System: AMES SALMONELLA TYPHIMURIUM, Strain/Indicator: TA1537, Metabolic Activation: NONE, Method: STANDARD PLATE", "value": "inactive; negative"},
      {"measurement": "mutagenic call", "setting": "Test System: AMES SALMONELLA TYPHIMURIUM, Strain/Indicator: TA1537, Metabolic Activation: RAT, LIVER, S-9, AROCLOR 1254, Method: STANDARD PLATE", "value": "inactive; negative"},
      {"measurement": "mutagenic call", "setting": "Test System: MOUSE LYMPHOMA, Strain/Indicator: L5178Y (TK+/TK-), Metabolic Activation: RAT, LIVER, S-9, AROCLOR 1254, Method: SUSPENSION/PLATE", "value": "inactive; negative. reevaluation of results: negative"},
      {"measurement": "mutagenic call", "setting": "Test System: Mouse lymphoma, Strain/Indicator: L5178Y (tk+/tk-), Metabolic Activation: None, Method: Suspension/plate", "value": "inactive; negative"}
    ]},
    {"smiles": "C=C(CC(=O)OCC)C(=O)OCC", "values": [
      {"measurement": "mutagenic call", "setting": "Test System: Chinese hamster ovary cells, Metabolic Activation: None, Method: CHO/HGPRT assay", "value": "inactive; negative"}
    ]},
    {"smiles": "NNc1ccc(C(=O)O)cc1", "values": [
      {"measurement": "mutagenic call", "setting": "Test System: AMES SALMONELLA TYPHIMURIUM, Strain/Indicator: TA104, Metabolic Activation: MUSHROOM TYROSINASE, Method: PREINCUBATION", "value": "inactive; negative"},
      {"measurement": "mutagenic call", "setting": "Test System: AMES SALMONELLA TYPHIMURIUM, Strain/Indicator: TA104, Metabolic Activation: NONE, Method: PREINCUBATION", "value": "inactive; negative"},
      {"measurement": "mutagenic call", "setting": "Test System: AMES SALMONELLA TYPHIMURIUM, Strain/Indicator: TA104, Metabolic Activation: RAT, LIVER, CYTOSOL, AROCLOR 1254, NADPH, Method: PREINCUBATION", "value": "inactive; negative"}
    ]}
  ]
}
